We go through 63 molecules from a melting point compilation (Tetko et al.; mined from patent text by program, amines drawn as free bases though some values may be those of a salt).

The term melting point denotes the temperature, or range, at which the solid turns liquid.

Residues, ends and D or L forms follow the SMILES beside them. *: point of attachment. Boc = CC(C)(C)OC(=O)*; OBn = c1ccc(CO*)cc1; Bn = c1ccc(C*)cc1

Regarding `O=C(O)[C@@H](CC(=O)N1CCN(CC(F)(F)F)CC1)Cc1ccccc1`, the melting point lay in the range of 96 to 98 °C.

Regarding `CCOC(=O)Nc1sc(-c2ccc([N+](=O)[O-])cc2)c(C)c1C(=O)OCC`, the melting point lay in the range of 130 to 131 °C.

As to `Cc1oc(-c2ccccc2)nc1CCc1nc(COc2ccccc2CC(=O)O)cs1`, the melting point lay in the range of 152 to 153 °C.

With `CON=CC(C)(C)NC(=O)c1c(Cl)cccc1C(=O)Nc1ccc(OC(F)(F)F)cc1C`, the melting point amounted to 197 °C.

As for `Cc1nc2ccc(N)cc2c(=O)n1C1CCC(=O)NC1=O` (stereo not drawn), the melting point lay within 314 to 316 °C.

On to `O=c1cc(OCC2CCCCC2)cc[nH]1`, for which the melting point is 256 to 260 °C.

Turning to `c1ccc(OCCSCc2nnc(-c3ccc(OCCCN4CCC4)cc3)o2)cc1`, the melting point is 60 °C.

For `O=C(c1cccc(CBr)c1)c1cccc(CBr)c1`, the melting point is 147 to 148 °C.

In the case of `Cc1[nH]c(=O)c(C#N)cc1-c1ccc2nccn2c1`, the melting point is over 300 °C.

`Cc1ccc(C)c(OC(C)(C)C(=O)O)c1` registered a melting point of 107 to 109 °C.

`C=Cc1cc(C)cc(C)c1CC(=O)NC1(C(=O)OC)CCN(OC)CC1` showed a melting point of 142 to 144 °C.

The molecule `CC(=O)c1cncn1C1c2ccccc2CC1(C)C` (stereo not drawn) displayed a melting point of 69 to 70 °C.

As for `CCCCCC(=O)Nc1ccc(NNC(=O)N(C)c2cccc3c2C(=O)N(C)C3=O)cc1`, the melting point lay within 115 to 118 °C.

Turning to `COc1cc(N)c([N+](=O)[O-])cc1NCCO`, the melting point stood at 165 °C.

For the molecule `Oc1ccc(Oc2ccc(C(F)(F)F)cc2Cl)cc1`, the melting point fell in the range of 55 to 56 °C.

For `O=C(O)CCCC[C@@H]1SC[C@H]2[C@@H]1N(Cc1ccccc1)C(=O)N2Cc1ccccc1`, the melting point fell in the range of 88 to 89 °C.

`CCOC(=O)C=Cc1ccc(OC)cc1OC` came in with a melting point of 58 °C.

The molecule `COC(=O)c1ccccc1OCC(O)CN1CCN(c2ccccc2OC)CC1` (stereo not drawn) had a melting point of 120 to 121 °C.

`O=c1c2c(oc3ccccc13)O2`: the melting point fell in the range of 66 to 67 °C.

With `Cc1ccc(S(=O)(=O)OCCCCCn2c3c(c4ccccc4c2=O)C(=O)c2ccccc2-3)cc1`, the melting point lay in the range of 163 to 165 °C.

The molecule `O=C(Nc1ccc(Oc2ccnc(NC3CCC3)n2)c2ccccc12)c1cc(F)cc(N2CCOCC2)c1` registered a melting point of 110 to 112 °C.

For the molecule `Cn1cc(OS(C)(=O)=O)c(=O)c2cccc(F)c21`, the melting point was 207 to 209 °C.

As to `O=C1Nc2ccncc2Oc2ccccc21`, the melting point lay in the range of 253 to 254 °C.

As for `Cc1coc2c1C(=O)CC(c1ccccc1F)C2` (stereo not drawn), the melting point was in the range of 71 to 72 °C.

Turning to `[N-]=[N+]=NCC1=NN=C(c2ccc([N+](=O)[O-])cc2)c2cc3c(cc2C1)OCO3`, the melting point lay in the range of 198 to 200 °C.

Take `O=Cc1c(Cl)n(CC2CC2)c2ccccc12`: the melting point was in the range of 108 to 109 °C.

Molecule `CC(C)(C)N(CCc1ccccc1)NC(=O)c1ccccc1` had a melting point of 150 to 152 °C.

The molecule `CSc1nc2ccc(Cl)cc2c(-c2ccccc2)c1N` yielded a melting point of 115 to 117 °C.

As for `N#Cc1cc(F)c(N=c2snc3n2CCCC3)cc1F`, the melting point was 137 °C.

For the molecule `CC(=O)OCC1C(C(=O)O)C1(C)C` (stereo not drawn), the melting point lay within 78 to 79 °C.

With `COc1ccnc(CCc2nc3cc(-c4ccc(S(=O)(=O)Nc5ccccc5OC)cc4)cnc3[nH]2)c1`, the melting point was in the range of 215 to 216 °C.

For `Clc1ccc2[nH]c(-c3ccccc3)c(CCN3CCCCC3)c2c1`, the melting point was in the range of 153 to 154 °C.

The molecule `COc1cc2c(cc1OC)CN(CC(O)COc1ccc(N)cc1)CC2` (stereo not drawn) came in with a melting point of 106 °C.

In turn, `CC1CN(CC(N)=O)C(=O)N1` (stereo not drawn) came in with a melting point of 124 °C.

The molecule `C[Si](C)(C)c1cn(Cc2ccc(C#N)cc2)nn1` came in with a melting point of 83 °C.

The molecule `O=C1CCC(=O)N1Cc1nc2sc3c(c2c(-c2ccc(Cl)cc2)c1Cl)CCNC3` had a melting point of 230 to 231 °C.

Molecule `COC(=O)C(C)(N)Cc1c[nH]c2ccc(Cl)cc12` (racemic) showed a melting point of 170 °C.

As to `Cc1cc(=O)[nH]c2ccc(OCCCN3CCN(Cc4ccc(C(C)(C)C)cc4)CC3)cc12`, the melting point was 171 to 172 °C.

Consider `CC(=O)OCCOCCN1CCC(CNC(=O)[C@@H]2CCCN2S(=O)(=O)c2ccc(Cl)c(COc3cccc4c(-n5ccnc5)cc(C)nc34)c2Cl)CC1`, for which the melting point amounted to 90 °C.

`CC(=NOCC(=O)O)c1ccc(Cl)cc1`: the melting point came to 116 °C.

For `Cc1ccc2c(c1)oc1c(C(N)=O)nn(-c3ccc(Cl)cc3Cl)c12`, the melting point is 185 to 186 °C.

`CC(C)(C)NC(=O)C(Cc1ccc(OCc2ccccc2)cc1)NC(=O)c1ccc(C(C)(C)C)cc1` (stereo not drawn) returned a melting point of 124 to 131 °C.

Molecule `CNC(=O)c1ccc(=O)n(CCNC(=O)c2cccnc2)c1` registered a melting point of 208 to 210 °C.

Turning to `CCOC(=O)C1=C(C)NC(N=CN(C)C)=C(C(=O)OCC)C1c1ccccc1Cl` (stereo not drawn), the melting point was found to be 140 °C.

In the case of `CCCCCC(CC(=O)Nc1cc(C(N)=O)ccc1C(C)(C)C)c1cc(C(=O)OC)c(OC)cc1OC` (stereo not drawn), the melting point is 101 to 103 °C.

`CCCc1ccc(S(=O)(=O)Nc2ccc3nc(C)oc3c2)cc1` came in with a melting point of 102 °C.

In turn, `CCC(COS(C)(=O)=O)Nc1ccc(Cl)cc1[N+](=O)[O-]` (stereo not drawn) displayed a melting point of 91 to 93 °C.

For the molecule `CCOP(=O)(OCC)C(c1ccccc1)c1ccccc1C(F)(F)F` (stereo not drawn), the melting point is 127 to 130 °C.

`Cc1cc(C)c2c(c1OCC(=O)O)Cc1sc(SCCC(c3ccccc3)c3ccccc3)nc1-2` came in with a melting point of 156 to 158 °C.

As to `COc1ccc2c(c1)CN(C(N)=O)N=C2Cc1c(Cl)cncc1Cl`, the melting point was over 230 °C.

The molecule `CC(C)CCc1c(-c2ccc(S(N)(=O)=O)cc2)cnn(-c2ccc(F)cc2)c1=O` had a melting point of 180 to 183 °C.

For the molecule `COc1cccc(C=O)c1OS(=O)(=O)C(F)(F)F`, the melting point is 29.5 to 31.5 °C.

On to `COc1ccc(-c2ocnc2-c2cc(OC)c(OC)c(OC)c2)cc1F`, for which the melting point fell in the range of 139 to 140 °C.

Consider `COc1c(-c2ccc3cc(NS(C)(=O)=O)ccc3c2)cc(N2CCCNC2=O)cc1C(C)(C)C`, for which the melting point is over 300 °C.

For `CN1c2ccc([N+](=O)[O-])cc2CS1(=O)=O`, the melting point lay within 214 to 216 °C.

For the molecule `COc1ccc(C(C)(O)C(F)(F)F)c(CCO)c1` (stereo not drawn), the melting point fell in the range of 110 to 111 °C.

The molecule `CCOc1cc(C)c(CCc2ccc(OC)c(OC)c2)cc1OC` had a melting point of 38.4 °C.

With `O=C(O)COc1c(I)cc(-c2c3ccccc3cc3sc4ccccc4c23)cc1I`, the melting point lay in the range of 250 to 252 °C.

For the molecule `CCCn1c(=O)n2c(=O)[nH]nc2c2c1ncn2C`, the melting point lay within 299 to 301 °C.

For the molecule `CCCCCCCCCCCCCCCCCCOCC(O)Cn1cnc2c(N)ncnc21` (stereo not drawn), the melting point fell in the range of 151 to 152 °C.

In turn, `CC(C)CC(NC(=O)C(Cc1ccc(OCc2ccccc2)cc1)NC(=O)OC(C)(C)C)C(=O)NCC(=O)OCc1ccccc1` (stereo not drawn) (Boc-Tyr(Bn)-Leu-Gly-OBn; configuration not given here) came in with a melting point of 114 to 116 °C.

As to `CC(C)c1ccc(C2(O)C(=O)c3ccccc3C2=O)c(OC(=O)C=Cc2ccccc2)c1`, the melting point was 95 to 97 °C.

As to `COc1cc(N2CCNCC2)cc(OC)c1OC`, the melting point was in the range of 73 to 77 °C.
